Assay results: patent US20200102264A1, “MARMELIN ANALOGS AND METHODS OF USE IN CANCER TREATMENT” (THE UNIVERSITY OF KANSAS, priority 2014, published 2020)

Key:
[1] = system: HCT116 cells; assay: cell cycle analysis, HCT116; assay type: cell-based; details: HCT116 cells, 5 μM and 10 μM, 24 hours, propidium iodide flow cytometry
[2] = system: MiaPaCa-2 pancreatic cancer cells; assay: hexoseaminidase cell proliferation assay, MiaPaCa-2; assay type: cell-based
Method: (§1) Using hexoseaminidase assay, we determined the effect of the compounds on cell proliferation. […] The IC50 value at 48 hours is below 10 μM in all the cancer cell lines.
(§2) Using hexoseaminidase assay, we determined the effect of the compounds on cell proliferation. […] The MRL16 IC50 value at 48 hours is below 0.3 μM in Colon cancer cell lines. […] Overall, the analogs can be used as chemotherapeutic agents against colon and pancreatic cancer.

[3] = system: SW480 colon cancer cells; assay: hexoseaminidase cell proliferation assay, SW480; assay type: cell-based
Description: (§3) Using hexoseaminidase assay, we determined the effect of the compounds on cell proliferation. […]
(§4) Using hexoseaminidase assay, we determined the effect of the compounds on cell proliferation. […] […] […] Overall, the analogs can be used as chemotherapeutic agents against colon and pancreatic cancer.

[4] = system: 253JBV bladder cancer cells; assay: hexoseaminidase cell proliferation assay, 253JBV; assay type: cell-based
Method: as §1

[5] = system: SW480 cells; assay: colony formation, SW480; assay type: cell-based
[6] = system: PanC-1 cells; assay: colony formation, PanC-1; assay type: cell-based
[7] = system: HCT116 cells; assay: colony formation, HCT116; assay type: cell-based
[8] = system: colon, pancreatic and bladder cancer cells; assay: hexoseaminidase cell proliferation assay, summaries over cell lines; assay type: cell-based; details: for inhibition of cell proliferation (in words): dose and time dependent
Method: Water solubility studies were performed with the CD/analog complexes. […] The observed IC50 value of THBCD at 48 h is below 10 μM in all the colon, pancreatic and bladder cancer cells.
as §1, §2

[9] = system: HCT116 colon cancer tumor xenografts; assay: HCT116 colon cancer tumor xenografts in nude mice; assay type: in vivo; details: intraperitoneal 5 mg/kg body weight every day for 21 days
Method: (§5) For in vivo, HCT116 cells were injected into the blanks of nude mice, after one week when there was a palpable tumor and these compounds were injected intraperitonially (5 mg/kg body weight) every day for 21 days. Tumor volumes were measured weekly. On 29th day mice were euthanized and the tumors were removed and weighed for use in histology, immunohistochemistry, and gene expression studies. Both THB and THBCD inhibited growth of the tumor. It is noted that the images of FIG. 4C are from left to right: control; THB; and THBCD.
as §5, with “DBQ” for “Both THB and THBCD”, “inhibited the” for “inhibited”, “16C” for “4C”, “control;” for “control; THB;”, “DBQ.” for “THBCD.”
FIGS. 19A and 19B show MRL 16 inhibits tumor growth, such as on colon cancer tumor xenografts. For in vivo, HCT116 cells were injected into the blanks of nude mice, after one week when there was a palpable tumor and these compounds were injected intraperitonially (2 mg/kg body weight) every day for 21 days. Tumor volumes were measured weekly. On 29th day mice were euthanized and the tumors were removed and weighed. MRL16 inhibited growth of the tumor.

[10] = system: PanC-1 pancreatic cancer cells; assay: hexoseaminidase cell proliferation assay, PanC-1; assay type: cell-based
Method: as §1, §2

[11] = system: cancer stem cells; assay: colonosphere formation; assay type: cell-based
Method: It was also determined the analogs inhibit colonosphere formation from cancer stem cells. […] The columns are 0, 10, 25, and 50 micromolar concentrations of the compounds labeled by rows.
The effect of the compounds on colonosphere formation was determined. […] Overall, the analogs have shown they can be used as chemotherapeutic agents against colon, pancreatic and bladder cancer.

[12] = system: KU7 bladder cancer cells; assay: hexoseaminidase cell proliferation assay, KU7; assay type: cell-based
Method: as §1

[13] = system: MiaPaCa-2 cells; assay: colony formation, MiaPaCa-2; assay type: cell-based
[14] = system: HCT116 colon cancer cells; assay: hexoseaminidase cell proliferation assay, HCT116; assay type: cell-based
Description: as §3, §4

Compound | IC50 ([4]; 24 h) | IC50 ([4]; 48 h) | IC50 ([4]; 72 h) | colony formation [5] | colony formation [6] | colony formation [7] | inhibition of cell proliferation (in words) [8] | colonosphere formation [11] | IC50 ([12]; KU7, 24 h) | IC50 ([12]; KU7, 48 h) | IC50 ([12]; KU7, 72 h) | colony formation [13] | IC50 ([2]; MiaPaCa-2, 24 h) | IC50 ([2]; MiaPaCa-2, 48 h) | IC50 ([2]; MiaPaCa-2, 72 h) | IC50 ([3]; SW480, 24 h) | IC50 ([3]; SW480, 48 h) | IC50 ([3]; SW480, 72 h) | IC50 ([10]; PanC-1, 24 h) | IC50 ([10]; PanC-1, 48 h) | also measured
CC(C)(C)C1=CC(=NNC(=O)c2cc3ccccc3cc2O)C=C(C(C)(C)C)C1=O [DBQ] | 50 µM | 25 µM | 6 µM | inhibit colony formation | inhibit colony formation | inhibit colony formation | potent inhibitor | potent inhibitors of colonosphere formation | 20 µM | 8 µM | 6 µM | inhibit colony formation | – | – | – | – | – | – | – | – | cell cycle effect (in words) [1]: induces G2/M arrest; IC50 ([2]; Homo sapiens, MIA PaCa-2, MiaPaCa-2, 24 h): 25 µM; IC50 ([2]; Homo sapiens, MIA PaCa-2, MiaPaCa-2, 48 h): 8 µM; IC50 ([2]; Homo sapiens, MIA PaCa-2, MiaPaCa-2, 72 h): 6 µM; IC50 ([3]; Homo sapiens, SW480, 24 h): 10 µM; IC50 ([3]; Homo sapiens, SW480, 48 h): 6 µM; IC50 ([3]; Homo sapiens, SW480, 72 h): 5 µM; IC50 ([8]; 48 h, all the colon, pancreatic and bladder cancer cell lines): < 10 µM; tumor volume [9]: significantly reduced; tumor weight [9]: significantly reduced; IC50 ([10]; Homo sapiens, PANC-1, 24 h): 45 µM; IC50 ([10]; Homo sapiens, PANC-1, 48 h): 9 µM; IC50 ([10]; Homo sapiens, PANC-1, 72 h): 7 µM; IC50 ([14]; Homo sapiens, HCT-116, HCT116, 24 h): 10 µM; IC50 ([14]; Homo sapiens, HCT-116, HCT116, 48 h): 5 µM; IC50 ([14]; Homo sapiens, HCT-116, HCT116, 72 h): 5 µM
O=C(N/N=C/c1ccc2ccccc2c1O)c1cc2ccccc2cc1O [NAL] | > 50 µM | 10 µM | 7 µM | inhibit colony formation | inhibit colony formation | inhibit colony formation | potent inhibitor | potent inhibitors of colonosphere formation | 10 µM | 10 µM | 6 µM | inhibit colony formation | 40 µM | 8 µM | 6 µM | 25 µM | 8 µM | 8 µM | 45 µM | 10 µM | IC50 ([10]; PanC-1, 72 h): 7 µM; IC50 ([14]; HCT116, 24 h): 10 µM; IC50 ([14]; HCT116, 48 h): 6 µM; IC50 ([14]; HCT116, 72 h): 6 µM
O=C(N/N=C/c1ccccc1O)c1cc2ccccc2cc1O [SAL] | – | – | – | inhibit colony formation | inhibit colony formation | inhibit colony formation | – | potent inhibitors of colonosphere formation | – | – | – | inhibit colony formation | > 50 µM | > 50 µM | 8 µM | > 50 µM | > 50 µM | 8 µM | > 50 µM | 10 µM | IC50 ([10]; PanC-1, 72 h): 8 µM; IC50 ([14]; HCT116, 24 h): 25 µM; IC50 ([14]; HCT116, 48 h): 8 µM; IC50 ([14]; HCT116, 72 h): 6 µM
